Values quoted from earlier work in patent publication US20080311191A1, “Multi-Layer Tablets and Bioadhesive Dosage Forms” (priority 2004, published 2008).
Where two headings read alike, the source gives them in different places.

Columns and labels:
[1] = not given; remark: listed apart in the source

water solubility | GI permeability [1] | water solubility [1] | solubility in water at pH<3.5 ([1]; pH<3.5) | Structure (SMILES)
moderate |  |  |  | Nc1nc2c(ncn2COCCO)c(=O)[nH]1 [Acyclovir, acyclovir]
 | good | negligible | slightly soluble | CCC(C)n1ncn(-c2ccc(N3CCN(c4ccc(OCC5COC(Cn6cncn6)(c6ccc(Cl)cc6Cl)O5)cc4)CC3)cc2)c1=O (stereo not shown) [Itraconazole, itraconazole]
